Consider 22 molecules from patent US9796700B2 (Celgene CAR LLC, priority 2013, dated 2017).

Assay [1] addresses Erk1 (Homo sapiens (Human), UniProt P27361). The experiment in a line: Protein Mass Modification Assay (intact protein MALDI). Type of assay: binding. A digest of the protocol: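 Percent covalent modification comes from the intact-protein MALDI centroid mass shift, treated versus control, divided by compound MW. Before analysis, human Erk1 was exposed to compound at 10-fold excess over protein for 60 min at room temperature.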

The target in assay [2] is MEK1 activated ERK1 (Homo sapiens (Human), UniProt P27361). The experiment in a line: Omnia continuous-read kinase assay for potency against MEK1 activated ERK1. The note with it: MEK1 activated ERK1, WT, ATP at KM. Type of assay: biochemical. From the text: Omnia Assay Protocol for Potency Assessment Against MEK1 Activated ERK1:
The protocol below describes continuous-read kinase assays to measure potency of compounds against activated ERK1 enzyme. The mechanics of the assay platform are best described by the vendor (Invitrogen, Carlsbad, Calif.) on their website at the following URL: invitrogen.com/site/us/en/home.html.
Briefly, a 1.25× stock of ERK1 enzyme (14-439-K) from Millipore (Billerica, Mass.), 5×ATP (AS001A) and ST17-Sox conjugated peptide substrate (KNZ1171C) were prepared in 1× kinase reaction buffer consisting of 20 mM Tris, pH 7.5, 5 mM MgCl2, 1 mM EGTA, 5 mM β-glycerophosphate, 5% glycerol (10× stock, KB002A) and 0.2 mM DTT. 10 μL of ATP/ST17-sox peptide substrate mix was combined with 0.5 μL volume of 100% DMSO and serially diluted compounds were prepared in 100% DMSO in a Corning (#3574) 384-well, white, non-binding surface microtiter plate (Corning, N.Y.). Kinase reactions were started with the addition of 40 μL of ERK1 solution and monitored every 71 seconds for 30-240 minutes at λex360/λem485 in a Synergy plate reader from BioTek (Winooski, Vt.). At the conclusion of each assay, progress curves from each well were examined for linear reaction kinetics and fit statistics (R^2, 95% confidence interval, absolute sum of squares). Initial velocity (0 minutes to ˜30+ minutes) from each reaction was determined from the slope of a plot of relative fluorescence units vs time (minutes or seconds) and then plotted against inhibitor concentration to estimate ^AppIC50 from log [Inhibitor] vs Response, Variable Slope model in GraphPad Prism from GraphPad Software (San Diego, Calif.).
[Reagent] used in optimized protocol:
[ERK1]=4 nM, [ATP]=50 μM, [ST17-Sox]=10 μM (ATP ^appKM 48 μM)
The results of this assay show the degree of inhibition of ERK activity, which is a direct measurement of inhibition of ERK activity. Results from this assay are reported in Table A under the column “ERK1 Omnia WT ATP KM IC50 (nM).”

Erk1, sequence (P27361 whole entry, looked up): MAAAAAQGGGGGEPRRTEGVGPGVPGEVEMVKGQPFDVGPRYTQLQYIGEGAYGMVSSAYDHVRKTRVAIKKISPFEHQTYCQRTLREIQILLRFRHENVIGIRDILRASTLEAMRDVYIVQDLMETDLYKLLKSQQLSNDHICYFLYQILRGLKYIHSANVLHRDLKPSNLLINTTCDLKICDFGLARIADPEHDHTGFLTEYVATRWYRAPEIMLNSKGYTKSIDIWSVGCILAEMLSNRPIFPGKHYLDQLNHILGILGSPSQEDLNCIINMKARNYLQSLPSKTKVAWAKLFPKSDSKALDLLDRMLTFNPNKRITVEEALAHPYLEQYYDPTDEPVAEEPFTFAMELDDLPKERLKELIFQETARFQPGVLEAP
MEK1 activated ERK1, sequence (P27361 whole entry): as the sequence (P27361 whole entry, looked up) above

In the case of `C=CC(=O)Nc1ccccc1Nc1nc(Nc2cc(OC)nc(N3CCCC3)c2)ncc1C(F)(F)F` [Compound I-281, N-(2-((2-((2-Methoxy-6-(pyrrolidin-1-yl)pyridin-4-yl)amino)-5-(trifluoromethyl)pyrimidin-4-yl)amino)phenyl)acrylamide], the “ERK1 Mass Mod (%)” value in assay [1] is “E (provided a mass modification of ≧70%)”. The IC50 in assay [2] is below 100 nM.
The like results for `CC#CC(=O)N[C@@H]1CCCC[C@H]1Nc1nc(N[C@H]2CCCN(C(=O)CO)C2)ncc1C(F)(F)F` [Compound I-33, N-((1R,2R)-2-((2-(((S)-1-(2-Hydroxyacetyl)piperidin-3-yl)amino)-5-(trifluoromethyl)pyrimidin-4-yl)amino)cyclohexyl)but-2-ynamide] were, in that order, “F (provided a mass modification of 31-69%)” and above 1000 nM.
With `C#CCOc1cc(C)c(Nc2ncc(Cl)c(Nc3ccccc3NC(=O)C=C)n2)cc1C(N)=O` [Compound I-228, 5-((4-((2-acrylamidophenyl)amino)-5-chloropyrimidin-2-yl)amino)-4-methyl-2-(prop-2-yn-1-yloxy)benzamide], in assay [1], the “ERK1 Mass Mod (%)” value was “G (proived a mass modification ≦30%)”. Besides, the IC50 in assay [2] is below 100 nM.
For `C=CC(=O)Nc1ccccc1Nc1nc(N[C@H]2CCCN(C(=O)CC)C2)ncc1Cl` [Compound I-131, (S)—N-(2-((5-chloro-2-((1-propionylpiperidin-3-yl)amino)pyrimidin-4-yl)amino)phenyl)acrylamide], in that order: “E (provided a mass modification of ≧70%)” and below 100 nM.
For `COc1cc(N2CCOCC2)ccc1Nc1ncc(N)c(Nc2ccccc2N)n1` [Compound I-312, N^4-(2-aminophenyl)-N^2-(2-methoxy-4-morpholinophenyl)pyrimidine-2,4,5-triamine], in that order: “G (proived a mass modification ≦30%)” and above 1000 nM.
For the molecule `C=CC(=O)N(C)c1ccccc1Nc1nc(Nc2cc(C(=O)NOC)ccc2C#N)ncc1Cl` [Compound I-197, 3-((5-chloro-4-((2-(N-methylacrylamido)phenyl)amino)pyrimidin-2-yl)amino)-4-cyano-N-methoxybenzamide], in assay [1], the “ERK1 Mass Mod (%)” value is “E (provided a mass modification of ≧70%)”. The IC50 in assay [2] is above 1000 nM.
For the molecule `C=CC(=O)Nc1ccccc1Nc1nc(Nc2cc(OC)nc(OCCOC)c2)ncc1C(F)(F)F` [Compound I-283, N-(2-((2-((2-Methoxy-6-(2-methoxyethoxy)pyridin-4-yl)amino)-5-(trifluoromethyl)pyrimidin-4-yl)amino)phenyl)acrylamide], in assay [1], the “ERK1 Mass Mod (%)” value is “E (provided a mass modification of ≧70%)”. Besides, the IC50 in assay [2] is below 100 nM.
Consider `C=CC(=O)Nc1ccccc1Nc1nc(Nc2cc(C(=O)NOC)ccc2C)ncc1C(F)(F)F` [Compound I-69, 3-((4-((2-Acrylamidophenyl)amino)-5-(trifluoromethyl)pyrimidin-2-yl)amino)-N-methoxy-4-methylbenzamide], for which the “ERK1 Mass Mod (%)” value in assay [1] was “E (provided a mass modification of ≧70%)”. The IC50 in assay [2] was below 100 nM.
The like results for `C=CC(=O)Nc1ccccc1Nc1nc(Nc2cc(C(N)=O)ccc2CC)ncc1Cl` [Compound I-193, 3-((4-((2-acrylamidophenyl)amino)-5-chloropyrimidin-2-yl)amino)-4-ethylbenzamide] were, in that order, “E (provided a mass modification of ≧70%)” and below 100 nM.
`C=CC(=O)Nc1ccccc1Nc1nc(NC2CCN(S(C)(=O)=O)CC2)ncc1C(F)(F)F` [Compound I-13, N-(2-((2-((1-(methylsulfonyl)piperidin-4-yl)amino)-5-(trifluoromethyl)pyrimidin-4-yl)amino)phenyl)acrylamide]: in assay [1], the “ERK1 Mass Mod (%)” value is on record as “E (provided a mass modification of ≧70%)”. In assay [2], the IC50 was below 100 nM.
For `C=CC(=O)Nc1ccccc1Nc1nc(Nc2cc(OC)nc(OC)c2)ncc1C(F)(F)F` [Compound I-95, N-(2-((2-((2,6-Dimethoxypyridin-4-yl)amino)-5-(trifluoromethyl)pyrimidin-4-yl)amino)phenyl)acrylamide], in that order: “E (provided a mass modification of ≧70%)” and below 100 nM.
The like results for `C=CC(=O)Nc1ccccc1Nc1nc(N[C@@H]2CCC[C@H](C(N)=O)C2)ncc1Cl` [Compound I-119, (1S,3R)-3-((4-((2-acrylamidophenyl)amino)-5-chloropyrimidin-2-yl)amino)cyclohexanecarboxamide] were, in that order, “E (provided a mass modification of ≧70%)” and below 100 nM.
For `C=CC(=O)Nc1cccc(Nc2nc(Nc3ccc(N4CCN(C(C)=O)CC4)cc3OC)ncc2Cl)c1` [Compound I-298, N-(3-((2-((4-(4-acetylpiperazin-1-yl)-2-methoxyphenyl)amino)-5-chloropyrimidin-4-yl)amino)phenyl)acrylamide], in assay [1], the “ERK1 Mass Mod (%)” value is on record as “G (proived a mass modification ≦30%)”. Also, the IC50 in assay [2] is above 1000 nM.
For `C=CC(=O)Nc1ccccc1Nc1nc(N[C@H]2CCCN(C(=O)C(C)C)C2)ncc1Cl` [Compound I-137, (S)—N-(2-((5-chloro-2-((1-isobutyrylpiperidin-3-yl)amino)pyrimidin-4-yl)amino)phenyl)acrylamide], the “ERK1 Mass Mod (%)” value in assay [1] is listed as “E (provided a mass modification of ≧70%)”. For the same molecule, the IC50 in assay [2] is below 100 nM.
The like results for `C=CC(=O)N[C@@H]1CCCC[C@@H]1Nc1nc(Nc2cc(C(N)=O)ccc2C)ncc1Cl` [Compound I-199, 3-((4-(((1S,2R)-2-acrylamidocyclohexyl)amino)-5-chloropyrimidin-2-yl)amino)-4-methylbenzamide] were, in that order, “G (proived a mass modification ≦30%)” and above 1000 nM.
The like results for `C=CC(=O)Nc1ccccc1Nc1nc(Nc2cc(NCCOC)nc(OC)c2)ncc1C(F)(F)F` [Compound I-286, N-(2-((2-((2-Methoxy-6-((2-methoxyethyl)amino)pyridin-4-yl)amino)-5-(trifluoromethyl)pyrimidin-4-yl)amino)phenyl)acrylamide] were, in that order, “E (provided a mass modification of ≧70%)” and below 100 nM.
For `CN(C)CCC(=O)Nc1ccccc1Nc1nc(N[C@H]2CCCN(C(=O)CO)C2)ncc1C(F)(F)F` [Compound I-276, (S)-3-(dimethylamino)-N-(2-((2-((1-(2-hydroxyacetyl)piperidin-3-yl)amino)-5-(trifluoromethyl)pyrimidin-4-yl)amino)phenyl)propanamide], the “ERK1 Mass Mod (%)” value in assay [1] is “G (proived a mass modification ≦30%)”. In addition, the IC50 in assay [2] was above 1000 nM.
With `C=CC(=O)Nc1ccccc1Nc1nc(N[C@H]2CCC[C@@H](C(N)=O)C2)ncc1Cl` [Compound I-120, (1R,3S)-3-((4-((2-acrylamidophenyl)amino)-5-chloropyrimidin-2-yl)amino)cyclohexanecarboxamide], the “ERK1 Mass Mod (%)” value in assay [1] is “E (provided a mass modification of ≧70%)”. Also, the IC50 in assay [2] was below 100 nM.
The like results for `C=CC(=O)Nc1ccccc1Nc1nc(N[C@@H]2CCN(C(=O)OC)C2)ncc1C(F)(F)F` [Compound I-61, (R)-Methyl 3-((4-((2-Acrylamidophenyl)amino)-5-(trifluoromethyl)pyrimidin-2-yl)amino)pyrrolidine-1-carboxylate] were, in that order, “E (provided a mass modification of ≧70%)” and above 1000 nM.
For `C=CC(=O)Nc1cc(C)ccc1Nc1nc(Nc2cc(OC)cnc2Cl)ncc1C(F)(F)F` [Compound I-361, N-(2-((2-((2-chloro-5-methoxypyridin-3-yl)amino)-5-(trifluoromethyl)pyrimidin-4-yl)amino)-5-methylphenyl)acrylamide], in that order: “E (provided a mass modification of ≧70%)” and below 100 nM.
The like results for `C=CC(=O)Nc1cc(C)ccc1Nc1nc(Nc2cnnc(OC)c2)ncc1C(F)(F)F` [Compound I-335, N-(2-((2-((6-methoxypyridazin-4-yl)amino)-5-(trifluoromethyl)pyrimidin-4-yl)amino)-5-methylphenyl)acrylamide] were, in that order, “E (provided a mass modification of ≧70%)” and above 1000 nM.
Turning to `C=C(C)S(=O)(=O)Nc1ccccc1Nc1nc(N[C@H]2CCCN(C(=O)CO)C2)ncc1C(F)(F)F` [Compound I-46, (S)—N-(2-((2-((1-(2-Hydroxyacetyl)piperidin-3-yl)amino)-5-(trifluoromethyl)pyrimidin-4-yl)amino)phenyl)prop-1-ene-2-sulfonamide], the “ERK1 Mass Mod (%)” value in assay [1] is given as “G (proived a mass modification ≦30%)”. In assay [2], the IC50 is below 100 nM.
